Measured values reported in ChEMBL document CHEMBL1201862, “PubChem BioAssay data set” (2004).
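Results reflect a 48-hour exposure of cells in 96-well plates to compound at five concentrations. Here, GI50 denotes the concentration required for 50% inhibition of growth.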 Calls of active or inactive are those of the source. No stated cut-off is given here; in the data, active = GI50 up to about 1.1 µM and inactive = higher.

Experiments:
Experiment in all cases: growth of human tumour cells (NCI), 48 h
786-0 = tested on: 786-0
A498 = tested on: A498
A549 = tested on: A549
ACHN = tested on: ACHN
CAKI-1 = tested on: CAKI-1
CCRF-CEM = tested on: CCRF-CEM
COLO 205 = tested on: COLO 205
DLD-1 = tested on: DLD-1
DMS-114 = tested on: DMS-114
DMS-273 = tested on: DMS-273
EKVX = tested on: EKVX
HCC 2998 = tested on: HCC 2998
HCT-116 = tested on: HCT-116
HCT-15 = tested on: HCT-15
HL-60 = tested on: HL-60
HOP-18 = tested on: HOP-18
HOP-62 = tested on: HOP-62
HOP-92 = tested on: HOP-92
HT-29 = tested on: HT-29
IGROV-1 = tested on: IGROV-1
K562 = tested on: K562
KM-20L2 = tested on: KM-20L2
KM12 = tested on: KM12
LOX IMVI = tested on: LOX IMVI
LXFL 529 = tested on: LXFL 529
M14 = tested on: M14
M19-MEL = tested on: M19-MEL
MOLT-4 = tested on: MOLT-4
Malme-3M = tested on: Malme-3M
NCI-H226 = tested on: NCI-H226
NCI-H23 = tested on: NCI-H23
NCI-H460 = tested on: NCI-H460
NCI-H522 = tested on: NCI-H522
OVCAR-3 = tested on: OVCAR-3
OVCAR-4 = tested on: OVCAR-4
OVCAR-5 = tested on: OVCAR-5
OVCAR-8 = tested on: OVCAR-8
RPMI-8226 = tested on: RPMI-8226
RXF 393 = tested on: RXF 393
SF-268 = tested on: SF-268
SF-295 = tested on: SF-295
SF-539 = tested on: SF-539
SK-MEL-28 = tested on: SK-MEL-28
SK-MEL-2 = tested on: SK-MEL-2
SK-MEL-5 = tested on: SK-MEL-5
SK-OV-3 = tested on: SK-OV-3
SN12C = tested on: SN12C
SNB-19 = tested on: SNB-19
SNB-75 = tested on: SNB-75
SNB-78 = tested on: SNB-78
SR = tested on: SR
SW-620 = tested on: SW-620
TK-10 = tested on: TK-10
U-251 = tested on: U-251
UACC-257 = tested on: UACC-257
UACC-62 = tested on: UACC-62
UO-31 = tested on: UO-31
XF498 = tested on: XF498
RXF 631 = tested on: RXF 631

For `O=[N+]([O-])c1ccc(-n2nnc(C3=NCCN3)c2-c2ccc(Cl)cc2)cc1`, which GI50 (786-0) is on record?
Its GI50 is > 100 µM (inactive).

And the GI50 (A498)?
The GI50 was > 100 µM (inactive).

What about the GI50 (A549) of the same compound?
Its GI50 is > 100 µM (inactive).

What about the GI50 (ACHN) of the same compound?
The GI50 was > 100 µM (inactive).

What about the GI50 (CAKI-1) of the same compound?
Its GI50 is > 100 µM (inactive).

And the GI50 (CCRF-CEM)?
Its GI50 is > 100 µM (inactive).

And the GI50 (COLO 205)?
Its GI50 is 51.6 µM (inactive).

And the GI50 (DLD-1)?
The GI50 was > 100 µM (inactive).

What about the GI50 (DMS-114) of the same compound?
Its GI50 is 77.1 µM (inactive).

What about the GI50 (DMS-273) of the same compound?
Its GI50 is > 100 µM (inactive).

And the GI50 (EKVX)?
The GI50 was > 100 µM (inactive).

And the GI50 (HCC 2998)?
The GI50 was > 100 µM (inactive).

What about the GI50 (HCT-116) of the same compound?
Its GI50 is 55.8 µM (inactive).

And the GI50 (HCT-15)?
Its GI50 is > 100 µM.

What about the GI50 (HL-60) of the same compound?
Its GI50 is > 100 µM (inactive).

And the GI50 (HOP-18)?
Its GI50 is > 100 µM (inactive).

And the GI50 (HOP-62)?
The GI50 was > 100 µM (inactive).

What about the GI50 (HOP-92) of the same compound?
Its GI50 is > 100 µM (inactive).

What about the GI50 (HT-29) of the same compound?
The GI50 was 66.8 µM (inactive).

What about the GI50 (IGROV-1) of the same compound?
The GI50 was > 100 µM (inactive).

And the GI50 (K562)?
The GI50 was 83.8 µM (inactive).

And the GI50 (KM-20L2)?
Its GI50 is > 100 µM (inactive).

What about the GI50 (KM12) of the same compound?
The GI50 was > 100 µM (inactive).

And the GI50 (LOX IMVI)?
Its GI50 is > 100 µM (inactive).

And the GI50 (LXFL 529)?
The GI50 was > 100 µM (inactive).

And the GI50 (M14)?
Its GI50 is > 100 µM (inactive).

What about the GI50 (M19-MEL) of the same compound?
The GI50 was > 100 µM (inactive).

What about the GI50 (MOLT-4) of the same compound?
The GI50 was 65.3 µM (inactive).

And the GI50 (Malme-3M)?
Its GI50 is > 100 µM (inactive).

And the GI50 (NCI-H226)?
Its GI50 is > 100 µM (inactive).

And the GI50 (NCI-H23)?
The GI50 was > 100 µM (inactive).

What about the GI50 (NCI-H460) of the same compound?
The GI50 was 91.4 µM (inactive).

What about the GI50 (NCI-H522) of the same compound?
The GI50 was > 100 µM (inactive).

And the GI50 (OVCAR-3)?
Its GI50 is > 100 µM (inactive).

What about the GI50 (OVCAR-4) of the same compound?
The GI50 was > 100 µM (inactive).

What about the GI50 (OVCAR-5) of the same compound?
Its GI50 is > 100 µM (inactive).

What about the GI50 (OVCAR-8) of the same compound?
The GI50 was > 100 µM (inactive).

What about the GI50 (RPMI-8226) of the same compound?
The GI50 was > 100 µM (inactive).

What about the GI50 (RXF 393) of the same compound?
The GI50 was 93.3 µM (inactive).

What about the GI50 (SF-268) of the same compound?
Its GI50 is 73.3 µM (inactive).

What about the GI50 (SF-295) of the same compound?
Its GI50 is > 100 µM (inactive).

What about the GI50 (SF-539) of the same compound?
Its GI50 is > 100 µM (inactive).

And the GI50 (SK-MEL-28)?
Its GI50 is > 100 µM (inactive).

What about the GI50 (SK-MEL-2) of the same compound?
Its GI50 is > 100 µM (inactive).

What about the GI50 (SK-MEL-5) of the same compound?
Its GI50 is > 100 µM (inactive).

What about the GI50 (SK-OV-3) of the same compound?
Its GI50 is > 100 µM (inactive).

What about the GI50 (SN12C) of the same compound?
The GI50 was > 100 µM (inactive).

What about the GI50 (SNB-19) of the same compound?
The GI50 was > 100 µM (inactive).

And the GI50 (SNB-75)?
Its GI50 is 83.6 µM (inactive).

What about the GI50 (SNB-78) of the same compound?
Its GI50 is > 100 µM (inactive).

What about the GI50 (SR) of the same compound?
Its GI50 is 27.2 µM (inactive).

And the GI50 (SW-620)?
The GI50 was > 100 µM (inactive).

And the GI50 (TK-10)?
The GI50 was 69 µM (inactive).

What about the GI50 (U-251) of the same compound?
The GI50 was > 100 µM (inactive).

And the GI50 (UACC-257)?
The GI50 was > 100 µM (inactive).

What about the GI50 (UACC-62) of the same compound?
The GI50 was > 100 µM (inactive).

What about the GI50 (UO-31) of the same compound?
The GI50 was 83.2 µM (inactive).

And the GI50 (XF498)?
Its GI50 is > 100 µM (inactive).

`Nc1c(-c2ccc(Br)cc2)[n+]([O-])c2ccccc2[n+]1[O-]` was tested. Which GI50 (786-0) did it give?
Its GI50 is > 100 µM (inactive).

And the GI50 (A498)?
Its GI50 is > 100 µM (inactive).

And the GI50 (A549)?
Its GI50 is 92 µM (inactive).

What about the GI50 (ACHN) of the same compound?
The GI50 was > 100 µM (inactive).

And the GI50 (CAKI-1)?
The GI50 was > 100 µM (inactive).

And the GI50 (COLO 205)?
The GI50 was > 100 µM (inactive).

And the GI50 (DLD-1)?
The GI50 was > 100 µM (inactive).

And the GI50 (DMS-114)?
The GI50 was 50.9 µM (inactive).

And the GI50 (DMS-273)?
The GI50 was > 100 µM (inactive).

What about the GI50 (EKVX) of the same compound?
The GI50 was > 100 µM (inactive).

And the GI50 (HCT-116)?
The GI50 was > 100 µM (inactive).

What about the GI50 (HCT-15) of the same compound?
The GI50 was > 100 µM.

And the GI50 (HL-60)?
The GI50 was 82.4 µM (inactive).

What about the GI50 (HOP-18) of the same compound?
Its GI50 is > 100 µM (inactive).

And the GI50 (HOP-62)?
Its GI50 is > 100 µM (inactive).

What about the GI50 (HOP-92) of the same compound?
The GI50 was > 100 µM (inactive).

And the GI50 (HT-29)?
Its GI50 is > 100 µM (inactive).

What about the GI50 (IGROV-1) of the same compound?
The GI50 was > 100 µM (inactive).

And the GI50 (K562)?
Its GI50 is 64.9 µM (inactive).

What about the GI50 (KM-20L2) of the same compound?
The GI50 was > 100 µM (inactive).

What about the GI50 (KM12) of the same compound?
The GI50 was > 100 µM (inactive).

And the GI50 (LXFL 529)?
Its GI50 is > 100 µM (inactive).

And the GI50 (M14)?
Its GI50 is > 100 µM (inactive).

And the GI50 (MOLT-4)?
The GI50 was 39.2 µM (inactive).

And the GI50 (Malme-3M)?
Its GI50 is > 100 µM (inactive).

And the GI50 (NCI-H226)?
Its GI50 is > 100 µM (inactive).

What about the GI50 (NCI-H23) of the same compound?
Its GI50 is > 100 µM (inactive).

And the GI50 (NCI-H460)?
The GI50 was > 100 µM (inactive).

And the GI50 (NCI-H522)?
Its GI50 is 52.6 µM (inactive).

And the GI50 (OVCAR-3)?
Its GI50 is 92 µM (inactive).

What about the GI50 (OVCAR-4) of the same compound?
The GI50 was > 100 µM (inactive).

And the GI50 (OVCAR-5)?
The GI50 was > 100 µM (inactive).

And the GI50 (OVCAR-8)?
The GI50 was > 100 µM (inactive).

What about the GI50 (RPMI-8226) of the same compound?
The GI50 was 27.9 µM (inactive).

What about the GI50 (RXF 631) of the same compound?
Its GI50 is > 100 µM (inactive).

And the GI50 (SF-268)?
Its GI50 is > 100 µM (inactive).

What about the GI50 (SF-295) of the same compound?
Its GI50 is > 100 µM (inactive).

What about the GI50 (SF-539) of the same compound?
The GI50 was > 100 µM (inactive).

And the GI50 (SK-MEL-28)?
The GI50 was > 100 µM (inactive).

And the GI50 (SK-MEL-2)?
The GI50 was > 100 µM (inactive).

And the GI50 (SK-MEL-5)?
Its GI50 is > 100 µM (inactive).

What about the GI50 (SK-OV-3) of the same compound?
The GI50 was > 100 µM (inactive).

What about the GI50 (SN12C) of the same compound?
The GI50 was > 100 µM (inactive).

And the GI50 (SNB-19)?
Its GI50 is > 100 µM (inactive).

What about the GI50 (SNB-75) of the same compound?
The GI50 was 81.3 µM (inactive).

What about the GI50 (SNB-78) of the same compound?
The GI50 was > 100 µM (inactive).

What about the GI50 (SW-620) of the same compound?
Its GI50 is > 100 µM (inactive).

What about the GI50 (U-251) of the same compound?
The GI50 was 78.2 µM (inactive).

What about the GI50 (UACC-257) of the same compound?
The GI50 was > 100 µM (inactive).

And the GI50 (UO-31)?
Its GI50 is 38.6 µM (inactive).
